# Measured values reported in patent US10815283B2, “Peptides for treatment of diabetes” (Follicum AB, priority 2017, dated 2020).
# “Also recorded” adds a separate entry of the source. No end group written: not given here.
# How the values were obtained:
# [1] = system: INS-1 cells; assay: Glucotoxicity-induced apoptosis in INS-1 cells (Annexin V staining, caspase-3 activity); assay type: cell-based, rat; settings: 20 mM glucose, 48 h, vs 20 mM glucose alone
# Experimental: Since glucotoxicity in pancreatic β-cells is a well-established process in type 2 diabetes we next investigated the protective effects of FOL-005 on β-cells during glucotoxic conditions. First we confirmed that 20 mM glucose induced cell apoptosis in INS cells after 48 h of exposure. High glucose (20 mM) containing RPMI medium induced more Annexin V positive cells and more caspase-3 activity in INS cells compared to cells incubated with medium containing 5 mM glucose (FIG. 2A-B). […] The rate of apoptosis in INS-1 cells was measured with either Caspase-3 Assay Kit or stained with Annexin V Apoptosis Detection Kit with 7-AAD. Caspase-3 activity was measured with fluorescence at an excitation wavelength of 380 nm and an emission wavelength of 440 nm. Caspase-3 activity was then normalized to protein concentration in each well. Measurements of Annexin V stained cells were performed using a CyAn ADP flow cytometer and analyzed with Summit V4.3 software.
# [2] = Distribution of H3 labelled peptide, whole body sectioning; assay type: in vivo, mouse; settings: subcutaneous, C57Bl/6 mice, 1 h and 2 h after injection
# Experimental: C57Bl/6 mice were injected subcutaneously with H^3 labelled FOL-005 and euthanized at 1 h (FIG. 12A) or 2 h (FIG. 12B) after injection. Following whole body sectioning the distribution of the labelled peptide was visualised. […] Using Pearl Trilogy Small Animal Imaging System, in vivo bio-distribution and tissue localization of two Cy7.5 labelled peptides, FOL-005 (FIG. 12C) and FOL-014 (FIG. 12D) in NMRI nude mice via subcutaneous injection was investigated. […] The dose of each peptide was 10 nmol per mouse. The mice were imaged before injection, at 5 min, 20 min, 50 min, 60 min, 2 hrs, 4 hrs, 6 hrs, 24 hrs and 48 hrs post administration of labelled peptide.
# [3] = In vivo bio-distribution of Cy7.5 labelled peptides, Pearl Trilogy Small Animal Imaging System; set-up: species or system mouse; settings: Cy7.5 labelled peptide
# [4] = system: INS-1 β-cells; assay: Insulin secretion from INS-1 cells, insulin radioimmunoassay (Examples 4 and 6); assay type: cell-based, rat; settings: peptide 6 μM, 60 min
# Experimental: To investigate the stimulatory effect of FOL-005 on insulin secretion, INS-1 β-cells were used in the following experiments. Cells were seeded overnight in cRPMI and then washed with PBS before pre-incubation for 60 min at 37° C. in Krebs-Ringer bicarbonate buffer (KRB), pH 7.4, supplemented with 10 mM HEPES, 0.1% bovine serum albumin. After pre-incubation, the buffer was changed and the INS-1 cells were incubated at different test conditions (0 mM, 5 mM or 20 mM glucose) and stimulated with peptide FOL-005 or FOL-015 (SEQ ID NO: 158) or left untreated during 60 min at 37° C. Immediately after incubation, an aliquot of the buffer was removed and frozen for subsequent assay of insulin with an insulin radioimmunoassay kit.
# INS-1 β-cells were used to investigate the stimulatory effect of FOL-014 on insulin secretion. Cells were seeded overnight and then washed with PBS before pre-incubation for 60 min at 37° C. in Krebs-Ringer bicarbonate buffer (KRB), pH 7.4, supplemented with 10 mM HEPES, 0.1% bovine serum albumin. After pre-incubation, the buffer was changed and the INS-1 cells were incubated in new KRB buffer supplemented with 10 mM HEPES, 0.1% bovine serum albumin and stimulated with peptide FOL-014 or left untreated during 60 min at 37° C. Immediately after incubation, an aliquot of the buffer was removed and frozen for subsequent assay of insulin.
# [5] = system: mouse pancreatic islets; assay: Insulin secretion from isolated mouse pancreatic islets (Examples 5 and 7); assay type: cell-based; settings: 60 min
# Experimental: Mouse pancreatic islets were isolated from 8-week old C57BL/6J male mice (Taconic). Mice were sacrificed by an overdose of isoflurane and cervical dislocation. 3 ml of 0.9 U/ml collagenase P was injected into the pancreatic duct to inflate the pancreas. The pancreas was then removed and collagen digested for 19 min at 37° C. The samples were vigorously shaken to disrupt the tissue. The digest was transferred into ice cold Hank's Balanced Salt Solution (HBSS) with Ca^2+ and Mg^2+. The suspension was allowed to sit for 10 min to allow the islet to sink, and the islets were washed in fresh HBSS four times. The islets were then hand-picked and sorted according to size. Islets (n=3 per well in a 96 well plate) were pre-incubated in KRB buffer during 10 min 37° C., pH 7.4, supplemented with 10 mM HEPES, 0.1% bovine serum albumin. After pre-incubation, the buffer was changed and islets were incubated at different test conditions in new KRB buffer with 0.1% bovine serum albumin (non-treated ctrl, FOL-005 peptide, or GLP-1) for 60 min at 37° C. Immediately after incubation, an aliquot of the buffer was removed and frozen for subsequent assay of insulin.
# Mouse pancreatic islets were isolated from 8-week old C57BL/6J male mice as described under example 5. The islets were then hand-picked and sorted according to size. Islets (n=5 per well in a 96 well plate) were pre-incubated in 200 μl KRB buffer during 10 min 37° C., pH 7.4, supplemented with 10 mM HEPES, 0.1% bovine serum albumin. Following pre-incubation, the buffer was changed and islets were incubated in different test conditions in new KRB buffer with 0.1% bovine serum albumin (non-treated ctrl, FOL-014 peptide, and GLP-1) for 60 min at 37° C. Immediately after incubation, an aliquot of the buffer was removed and frozen for subsequent assay of insulin.
# [6] = system: INS-1 cells; assay: Proliferation of INS-1 cells, [methyl-3H] thymidine incorporation; assay type: cell-based, rat
# Experimental: To investigate if FOL-005 and FOL-014 could induce proliferation of β-cells we used INS-1 cells. Rat INS-1 cells were seeded in 96-well plates in RPMI medium with supplement and after 2 hours the medium was changed to RPMI without supplement. During the proliferation experiment the cells were incubated at different test conditions (FOL-005, FOL-014, coated or in solution, 48 h incubation) and during the last 20 hours of culture period the cells were pulsed with 1μ Ci/well of [methyl-3H] thymidine. The cells were then harvested onto glass fiber filters using a FilterMate harvester. The filters were air dried, and the bound radioactivity was measured using a liquid scintillation counter. To study whether FOL-005 influenced β-cell proliferation, INS-1 cells were treated with increasing amounts of soluble FOL-005 (0.06-6 μM) during 48 hours and proliferation was measured with radiolabeled thymidine incorporation into newly synthesized DNA.
# [7] = system: isolated mouse islets; assay: Insulin and glucagon secretion from isolated mouse islets at low and high glucose (Example 12); assay type: cell-based; settings: 100 nM GLP-1, 1 h
# Experimental: Twelve-week-old male C57/bl6 mice were euthanized with isoflurane and cervical dislocation. After clamping the hepatic ducts, 3 ml of 0.9 U/ml collagenase P was injected into the bile duct to inflate the pancreas. The pancreas was then removed and digested for 19 min at 37° C. The samples were vigorously shaken to disrupt the tissue. The digest was quickly transferred into ice cold Hank's Balanced Salts Solution with Ca^2+ and Mg^2+. The suspension was allowed to sit for 8 min to allow the islet to sink, and the islets were washed in the same manner four times. The islets were then handpicked and sorted according to size.
# Freshly isolated islets were seeded in groups of 5 in a 96-well plate and preincubated for 1 h at 37° C. in a Krebs-Ringer bicarbonate buffer (pH 7.4). The islets were incubated for 1 h at 37° C. in Krebs-Ringer buffered solution supplemented with 0.6 or 6 μM FOL-014 or 100 nM GLP-1 or left unsupplemented for control. Immediately after incubation, the medium was removed for assays of insulin and glucagon using Mercodia's ELISA kits. The effect of FOL-014 on insulin (FIGS. 8A and B) and glucagon (FIGS. 8C and D) secretion from isolated mouse islets was measured in the presence of low glucose (2.8 mM; FIGS. 8A and C) or high glucose (16.7 mM; FIGS. 8B and D) concentrations.
Substance,"cell apoptosis, Annexin V staining [1]","cell apoptosis, caspase-3 activity [1]",tissue distribution of radioactivity [2],bio-distribution and tissue localization ([3]; i.v. administration (not shown)),"bio-distribution and tissue localization ([3]; subcutaneous, 10 nmol per mouse, NMRI nude mice, 5 min to 48 hrs)",insulin secretion ([4]; 5 mM glucose),insulin secretion ([4]; 20 mM glucose),insulin secretion ([4]; conditions without glucose),"insulin secretion ([5]; Example 5, 3 islets per well, peptide 6 μM)","INS-1 cell proliferation (radiolabeled thymidine incorporation) ([6]; soluble peptide 0.06-6 μM, 48 hours)","INS-1 cell proliferation (radiolabeled thymidine incorporation) ([6]; wells coated with peptide and blocked with BSA, vs control coated wells)",glucagon secretion ([7]; high glucose (16.7 mM)),insulin secretion ([7]; high glucose (16.7 mM)),glucagon secretion ([7]; low glucose (2.8 mM)),insulin secretion ([7]; low glucose (2.8 mM)),"insulin secretion ([5]; Example 5, 3 islets per well, GLP-1 100 nM)","insulin secretion ([5]; Example 7, 5 islets per well, GLP-1 100 nM)"
"VDTYDGDISVVYGLR ((1)..(15) peptide, FOL-005)",decreased cell apoptosis,decreased cell apoptosis,"Strong binding was evident in pancreas and at the site of injection; also recorded: also visible in liver, kidney, salivary glands",same distribution pattern,High accumulation of the peptide was evident in the pancreatic tissue area,responded with insulin secretion,responded with more insulin secretion compared to FOL-005 stimulated cells incubated with 5 mM glucose,secreted more insulin compared to unstimulated control cells,secreted more insulin compared to unstimulated control islets,stimulated INS-1 cell proliferation,stimulated proliferation compared to control (ctrl) coated wells,–,–,–,–,–,–
"glucagon-like peptide-1 (HAEGTFTSDVSSYLEGQAAKEFIAWLVKGR; ends and bridges not checked; UniProt P01275 98-127, looked up) [GLP-1, metabolic hormone that stimulates insulin secretion; native GLP-1 used as comparator]",–,–,–,–,–,–,–,–,–,–,–,efficiently reduced glucagon secretion,significantly increased insulin secretion,failed to inhibit glucagon secretion in low glucose conditions,enhanced insulin secretion also in low glucose samples,secreted more insulin compared to unstimulated control islets,did not affect insulin secretion
